In patent US6642250B2, “1,8-naphthyridin-2(1H)-one derivatives” (Grelan Pharmaceutical Co., Ltd., priority 1999, dated 2003):

Tests used:
PDE V = target: T1, PDE V (Sus scrofa, UniProt A0A287B475); experiment: PDE inhibition, type V PDE (cGMP substrate); type: biochemical; conditions: PDE V from porcine aortae, cGMP 1 μM; read-out: Inhibition of PDE Isoenzymes (IC50) V
T1 construct: Type V PDE was also separated from porcine aortae with an anion exchange chromatography and used herein
Protocol: The assays for PDE activity were conducted according to Nicholson et al. method (Br. J. Pharmacol., 97, 889 (1989)).
Among PDE isozymes, type I, II, III and IV PDEs as used herein were separated from porcine hearts by using an anion exchange chromatography. Type V PDE was also separated from porcine aortae with an anion exchange chromatography and used herein.
Each PDE isozyme was admixed with ethylene glycol (EG) to adjust the final EG concentration to 30%, then stored at −20° C. and diluted when used. The enzymatic activity for PDE I and V was measured using cGMP as a substrate while that for POE II, III and IV was measured using cAMP.
[^3H]-cAMP (962 GBq/mmol; Amersham, 25 μl (100,000 cpm)) or [^3H]-cGMP (962 GBq/mmol; Amersham, 25 μl (100,000 cpm)) was added together with each PDE isozyme (25 μl) to an incubation buffer solution with the composition given below to adjust the total volume to 250 μl. Each test compound was dissolved in DMSO to adjust the final concentration to 1% (2.5 μl/tube).
Incubation buffer solution (pH7.5):
Tris-HCl (50 mM), magnesium chloride (6 mM), dithiothreitol
(2.5 mM), 5-nucleotidase (4 μg/ml), bovine serum albumin
(0.23 mg/ml), and cAMP (1 μM) [or cGMP (1 μM)]
A mixture of the aforementioned test compound solution and the buffer solution was incubated at 30° C. for 20 minutes. The reaction was quenched by admixing with 1 ml of anion exchange resin slurry (AG1-X8, 200-400 meshes, chloride form; Bio-Rad) to absorb unreacted substrates.
After the reaction stopped, the mixture was centrifuged at 200×g for 10 minutes, and the resulting supernatant was collected with vials in 250 μl aliquots. To each vial was added 5 ml of ACS-II (scintillator, Amersham). The radioactivity was measured with a liquid scintillator counter for [^3H]-adenosine or [^3H]-guanosine and set as the PDE activity. The measurements were conducted under conditions wherein the enzymatic activity was elevated by adding calmodulin (20 U/ml; Amersham) and calcium chloride (0.1 mM) for PDE-I and cGMP (1 μM) for PDE II, respectively.
The % inhibition was calculated for test compounds, and IC50 (the concentration of each test compound required for 50% inhibition) was obtained by Probit method. The aforementioned rolipram ((−)-isomer, optical purity: 91% e.e.) known as the PDE IV inhibitor in the prior art was used for the reference compound in this assay.

[1] = system: actively sensitized guinea pigs; experiment: Inhibition of antigen-induced immediate asthmatic response (airway resistance, Konzett-Rossler method); type: in vivo, guinea pig; conditions: for inhibition in vivo at 3 mg/kg: Cavia porcellus, po, orally, 60 minutes prior to antigen-challenge, average of 3 animals, read-out: % Reduction of Increase in Airway Resistance; for % reduction of increase in airway resistance: oral administration at a dose of 1 mg/kg
Protocol: (1) Active Sensitization of Guinea Pigs
Male Hartley outbred guinea pigs were sensitized by administering intraperitoneally physiological saline (0.5 ml) containing ovalbumin (1 mg, antigen) and 5×10^9 inactivated Bordetella pertussis dead cells (adjuvant).
Eleven to thirteen days after the first sensitization, 0.05 ml of an ovalbumin solution (1 mg/ml) (ovalbumin is dissolved in physiological saline) was administered to the lateroabdominal region of each guinea pig intracutaneously. An establishment of sensitization was checked relying on cutaneous reaction. Only guinea pigs wherein significant reddening responses occurred 5 to 10 minutes later were employed in the next measurement test for airway resistance.
(2) Measurement for Airway Resistance in Actively Sensitized-Guinea Pigs
The guinea pigs (3 animals per group) actively sensitized in the above step (1) were employed to measure for their airway pressure according to Konzett-Rossler method (Arch. Exp. Path. Pharmakol., 195, 71 (1940)).
Thirteen days after the final sensitization, guinea pigs fasted overnight, and were on the next day anesthetized with a pentobarbital solution (60 mg/1.2 ml/kg, dissolved in physiological saline, intraperitoneal administration). After the guinea pigs were fixed in a supine position, their trachea was incised followed by insertion with one port of a 4-port cannula. Among the remaining 3 ports, 2 ports were connected to an artificial respirator (Model 683, Harvard). The animals were ventilated with 10 ml/kg of air per ventilation at a rate of 60 beats/min via the artificial respirator from the cannula. One port remainder was connected to a respiratory amplifier (AR-601G, Nihon Kohden, Japan) via an airflow resistance tube (TV-241T, Nihon Kohden, Japan) and a differential pressure transducer (TP-602T, Nihon Kohden, Japan) connected with a control box (RY-111S, Nihon Kohden, Japan). From a catheter inserted into a left carotid artery, blood pressures were monitored with a blood pressure measurement unit (AP641G, NEC Corp., Japan) via a blood pressure transducer (TP-300T, Nihon Kohden, Japan), and heart rates were recorded on a thermal recorder (WT-685G, Nihon Kohden, Japan), relying on blood pressure pulse waves after being led to a cardiograph unit (AT601G, Nihon Kohden, Japan).
After airway pressure became stable, an ovalbumin solution (1 mg/ml, dissolved in physiological saline) was administered at a dose of 1 ml/kg via a tube with which the right jugular vein of guinea pigs was cannulated. Each area under airway pressure-time curve (AUC) was obtained by measuring amplitudes of the airway pressure prior to the antigen-challenge, 1, 2, 3, 4, 5, 10, 15 and 20 minutes post-challenge, and each percent increase (%) in airway resistance was further calculated according to the following equation: [formula]
[…] Control groups received only 0.5% CMC—Na solution in an equivalent amount. The pentobarbital-anesthetization and tracheal incision were conducted 30 minutes prior to the antigen-challenge.
Each percent reduction of increase in airway resistance (each test compound-administered group versus control group) was calculated according to the equation given below. The results are shown in Table 2 wherein each value is an average of 3 animals. Rolipram as described in Assay Example 1 was used for the reference compound in this assay. [formula]
For a comparison with compounds as disclosed in JP, A, 63-159382 (1988), the percent reduction of increase in airway resistance was obtained for the compounds of the present invention (oral administration at a dose of 1 mg/kg), the compounds in Table 1 of JP, A, 63-159382 (1988) (oral administration at a dose of 1 mg/kg), and rolipram (reference compound; oral administration at a dose of 3 mg/kg), respectively, in the same assay manner as in the aforementioned Assay Example 2.

Row | SMILES | IC50 (PDE V) [µM] | inhibition in vivo at 3 mg/kg [1] [%] | % reduction of increase in airway resistance [1] [%]
1 | O=c1c(CCCc2ccncc2)cc2cccnc2n1-c1cccc([N+](=O)[O-])c1 [Example No. 8, 1-(3-Nitrophenyl)-3-[3-(pyridin-4-yl)propyl]-1,8-naphthyridin-2(1H)-one] | > 100 | 88 | 88
2 | COc1ccc(C2CNC(=O)C2)cc1OC1CCCC1 (single isomer, unassigned) [Rolipram, rolipram, reference compound] | – | 65 | –
3 | O=c1c(CCCc2cccnc2)cc2cccnc2n1-c1cccc([N+](=O)[O-])c1 [Example No. 7, 1-(3-Nitrophenyl)-3-[3-(pyridin-3-yl)propyl]-1,8-naphthyridin-2(1H)-one] | 4.7 | 95 | –
4 | CSc1cccc(-n2c(=O)c(CCCc3ccncc3)cc3cccnc32)c1 [Example No. 10, 1-(3-Methylthiophenyl)-3-[3-(pyridin-4-yl)propyl]-1,8-naphthyridin-2(1H)-one] | 13 | 82 | –
5 | O=c1c(CCCCc2cccnc2)cc2cccnc2n1-c1cccc([N+](=O)[O-])c1 [Example No. 14, 1-(3-Nitrophenyl)-3-[4-(pyridin-3-yl)butyl]-1,8-naphthyridin-2(1H)-one] | 5.1 | 92 | –
6 | O=c1c(Cc2cccnc2)cc2cccnc2n1-c1cccc([N+](=O)[O-])c1 [Example No. 2, 1-(3-Nitrophenyl)-3-(pyridin-3-ylmethyl)-1,8-naphthyridin-2(1H)-one] | 16 | 64 | –
7 | O=c1c(CCCc2ccncc2)cc2cccnc2n1-c1cccnc1 [Example No. 23, 1-(Pyridin-3-yl)-3-[3-(pyridin-4-yl)propyl]-1,8-naphthyridin-2(1H)-one] | > 100 | 90 | –
8 | O=c1c(CCCCCc2cccnc2)cc2cccnc2n1-c1cccc([N+](=O)[O-])c1 [Example No. 16, 1-(3-Nitrophenyl)-3-[5-(pyridin-3-yl)pentyl]-1,8-naphthyridin-2(1H)-one] | 7.4 | 96 | –
9 | O=c1c(CCc2cccnc2)cc2cccnc2n1-c1cccc([N+](=O)[O-])c1 [Example No. 5, 1-(3-Nitrophenyl)-3-[2-(pyridin-3-yl)ethyl]-1,8-naphthyridin-2(1H)-one] | 13 | 90 | 86
10 | O=c1c(CCc2ccncc2)cc2cccnc2n1-c1cccc([N+](=O)[O-])c1 [Example No. 6, 1-(3-Nitrophenyl)-3-[2-(pyridin-4-yl)ethyl]-1,8-naphthyridin-2(1H)-one] | 15 | 87 | –
